# Data: patent publication US11339170B1, “Spiropyrrolidine derived antiviral agents” (priority 2021, dated 2022)
# Assays:
# SARS-CoV-2 3CL-protease = SARS-CoV-2 3CL-protease (Severe acute respiratory syndrome coronavirus 2 (2019-nCoV) (SARS-CoV-2), UniProt P0DTD1); assay: SARS-CoV-2 3C-like (3CL) protease fluorescence assay (FRET); format: biochemical
# [1] = tested on: 229E human corona virus (hCoV); assay: 229E live virus assay (CPE, ATPlite readout) in MRC-5 cells; format: cell-based, hCoV-229E; settings: Human coronavirus 229E, MRC5, 144 h, read-out: 229E EC50
compound,measurement,setting,value
[2H]C([2H])([2H])N(C(=O)C(=O)NC(C)(C)C)[C@@H](CCCC)C(=O)N1C[C@]2(C[C@H]1C#N)C(=O)Nc1ccccc12 [Compound 49],IC50,SARS-CoV-2 3CL-protease,< 100 nM
same,EC50,[1],< 100 nM
[2H]C([2H])([2H])N(C(=O)C(=O)Nc1cnc2ccccc2c1)[C@@H](CCCC)C(=O)N1C[C@]2(C[C@H]1C#N)C(=O)Nc1ccccc12 [Compound 50],IC50,SARS-CoV-2 3CL-protease,< 100 nM
same,EC50,[1],< 100 nM
[2H]C([2H])([2H])N(C(=O)C(=O)Nc1cnc2ccccc2c1)[C@@H](CC1CC1)C(=O)N1C[C@]2(C[C@H]1C#N)C(=O)Nc1ccccc12 [Compound 51],IC50,SARS-CoV-2 3CL-protease,< 100 nM
same,EC50,[1],< 100 nM
CC(C)C[C@@H](C(=O)N1C[C@]2(C[C@H]1C#N)C(=O)Nc1ccccc12)N(C)C(=O)C(=O)Nc1nc2ccccc2[nH]1 [Compound 52],IC50,SARS-CoV-2 3CL-protease,100 to 1000 nM
same,EC50,[1],< 100 nM
CC(C)C[C@@H](C(=O)N1C[C@]2(C[C@H]1C#N)C(=O)Nc1ccccc12)N(C)C(=O)C(=O)Nc1nc2ccccc2o1 [Compound 53],IC50,SARS-CoV-2 3CL-protease,> 1000 nM
same,EC50,[1],100 to 1000 nM
[2H]C([2H])([2H])N(C(=O)C(=O)Nc1ccc(C(F)(F)F)cc1C(F)(F)F)[C@@H](CC1CC1)C(=O)N1C[C@]2(C[C@H]1C#N)C(=O)Nc1ccccc12 [Compound 68],IC50,SARS-CoV-2 3CL-protease,< 100 nM
same,EC50,[1],< 100 nM
CC(C)(C)C[C@H](NC(=O)C(=O)NC1CC1)C(=O)N1C[C@]2(C[C@H]1C#N)C(=O)Nc1ccccc12 [Compound 70],IC50,SARS-CoV-2 3CL-protease,< 100 nM
same,EC50,[1],< 100 nM
CC(C)(C)C[C@H](NC(=O)C(=O)Nc1c(F)cccc1F)C(=O)N1C[C@]2(C[C@H]1C#N)C(=O)Nc1ccccc12 [Compound 71],IC50,SARS-CoV-2 3CL-protease,< 100 nM
same,EC50,[1],< 100 nM
CC(C)(C)C[C@H](NC(=O)C(=O)NC1(c2ccc(F)cc2F)CC1)C(=O)N1C[C@]2(C[C@H]1C#N)C(=O)Nc1ccccc12 [Compound 72],IC50,SARS-CoV-2 3CL-protease,< 100 nM
same,EC50,[1],< 100 nM
